From US9782368B2, “Use of N,N-bis-2-mercaptoethyl isophthalamide” (EMERAMED LIMITED, priority 2014, dated 2017)
Read-outs that look alike come from different tables or passages of the source.

Test system: cigarette smoke (CS)-induced airway disease
Assay type: in vivo, BALB/c mice
Conditions: for weight gained compared to start weight: CS-exposed
Procedure: The 14 day dose-finding study was therefore followed by a 90 day study using essentially the same apparatus and protocol described in Example 4 above. On this occasion, the 5 treatment groups were as follows: • 1. Daily exposure to clean air (Placebo Group; Gr. 1) • 2. Daily exposure to CS (CS-Exposed Placebo Group; Gr. 2) • 3. Daily exposure to CS; treated with NBMI at a 30 mg/kg dose (NBMI 30 mg/kg Group; Gr. 3) • 4. Daily exposure to CS; treated with NBMI at a 60 mg/kg dose (NBMI 60 mg/kg Group; Gr. 4) • 5. Daily exposure to CS; treated with NBMI at a 150 mg/kg dose (NBMI 150 mg/kg Group; Gr. 5) On Day 91, animals were weighed and anesthetised with pentobarbital sodium (90 mg/kg body weight, i.p.). Mice were tracheotomised with an 18-gauge cannula and mechanically ventilated in a quasi-sinusoidal fashion with a small animal ventilator (flexiVent™, SCIREQ®) at a frequency of 3 Hz and a tidal volume (VT) of 12 ml/kg body weight. A positive end-expiratory pressure of 3 cm H2O was applied. The animal's cardiac output was monitored throughout the respiratory mechanics assessment. Mice were paralysed with pancuronium (0.1 mg/kg body weight, i.p. (local suppliers)) before 4 sigh manoeuvres at 3×VT were performed at the beginning of the experiment to establish stable baseline respiratory mechanics and to ensure a similar volume history before the experiment. Dynamic lung mechanics were measured by applying a sinusoidal standardised breath and analysed using the single compartment model and multiple linear regression, giving respiratory resistance (RRS), elastance (ERS) and compliance (CRS). The measurement of RRS reflects both narrowing of the conducting airways and alterations in the lung. The measurement of CRS and ERS reflects only events in the lung periphery, particularly airway closure leading to lung unit de-recruitment. By contrast, a selective change in CRS is indicative of a more distal site of action. More thorough evaluations of lung mechanics were made using forced oscillation technique (FOT) according to Jonasson et al., Respir. Res., 9, 23 (2008) and Respir. Physiol. Neurobiol., 165, 229 (2009). The parameters obtained from the FOT measurements in this study were: Newtonian resistance (RN), tissue damping (G), which is closely related to tissue resistance and reflects energy dissipation in the lung tissues; and tissue elastance (H), which characterises tissue stiffness and reflects energy storage in the tissues. Dynamic pressure-volume (PV) curves were determined by inflating the lungs to a maximum pressure of 30 cm H2O, allowing passive exhalation using the computer-controlled Flexivent ventilator for measuring volume and pressure. Individual results from each animal were compiled. All PV-measurements were performed in triplicate. Quasi-static PV loops were obtained by a slow stepwise inflation and deflation of the lungs. PV loops were performed for PEEP-levels, 3 cm H2O. The shape factor (k) of the descending limb of the PV loop was calculated by fitting the data to the Salazar-Knowles equation. The value of the parameter k is believed to change characteristically with both fibrosis and emphysema. The quasi-static compliance (Cst) and elastance (Est) and the volume air inspired sufficient to reach 20 cm water were also obtained. Bronchoalveolar lavage (BAL) was carried out essentially as described in Example 4 above, as was flow cytometry analysis of cells from BAL and analysis of inflammatory mediators in BAL and serum. Frozen lung tissue was homogenised together with 1 mL PBS in a 2 mL tube, using a mixer mill (Retch mm400) for 2 minutes at 4° C. Immediately after homogenisation, the tube was centrifuged for 15 minutes (1500 rpm, 4° C.). The supernatant was removed and saved for protein concentration determination using a NanoDrop spectrophotometer (Proteins A280). After analysing the protein content, equal amounts of protein from each sample were saved for the transforming growth factor beta (TGFβ) 1-3 analysis. […]

## O=C(NCCS)c1cccc(C(=O)NCCS)c1 [NBMI, N,N-bis-2-mercaptoethyl isophthalamide]
30, 60 and 150 mg/kg
  respiratory function (PV-curves) vs placebo group Gr. 2: did not display significantly changed respiratory function
30, 60 and 150 mg/kg, Day 90
  macrophages in BAL fluid: did not have significantly lower numbers of macrophages
Day 90, Gr. 3, 30 mg/kg
  weight gained compared to start weight: 1.0 ± 0.4 g
Day 90, Gr. 4, 60 mg/kg
  weight gained compared to start weight: 0.7 ± 0.2 g
Day 90, Gr. 5, 150 mg/kg
  weight gained compared to start weight: 0.6 ± 0.2 g
FACS, NBMI-treated groups
  percentage of T helper (CD4+/CD3+) and T cytotoxic (CD8+/CD3+) lymphocytes in BAL fluid: not significant altered
Gr. 4, 60 mg/kg
  neutrophils in BAL fluid: tendency to a lower number of neutrophils
Gr. 5, 150 mg/kg
  neutrophils in BAL fluid: tendency to a lower number of neutrophils
Gr. 5, 150 mg/kg, p<0.01
  GM-CSF level in serum vs Gr. 2: lowered
Gr. 5, 150 mg/kg, p<0.05
  MIP-1β level in serum vs Gr. 2: lowered
NBMI-treated animals
  T cytotoxic (CD8+/CD3+) lymphocytes in BAL fluid vs Gr. 2: significant decrease
All NBMI-treated groups
  lymphocytes in BAL fluid (tendency): a lower number of lymphocytes
Animals receiving NBMI
  TGFβ1-3 in lung homogenate vs Gr. 2: did not have significantly changed amount
